In one experiment the target is T1, SUMO (Homo sapiens, UniProt Q9UBT2).
T1 sequence (Q9UBT2 1-640): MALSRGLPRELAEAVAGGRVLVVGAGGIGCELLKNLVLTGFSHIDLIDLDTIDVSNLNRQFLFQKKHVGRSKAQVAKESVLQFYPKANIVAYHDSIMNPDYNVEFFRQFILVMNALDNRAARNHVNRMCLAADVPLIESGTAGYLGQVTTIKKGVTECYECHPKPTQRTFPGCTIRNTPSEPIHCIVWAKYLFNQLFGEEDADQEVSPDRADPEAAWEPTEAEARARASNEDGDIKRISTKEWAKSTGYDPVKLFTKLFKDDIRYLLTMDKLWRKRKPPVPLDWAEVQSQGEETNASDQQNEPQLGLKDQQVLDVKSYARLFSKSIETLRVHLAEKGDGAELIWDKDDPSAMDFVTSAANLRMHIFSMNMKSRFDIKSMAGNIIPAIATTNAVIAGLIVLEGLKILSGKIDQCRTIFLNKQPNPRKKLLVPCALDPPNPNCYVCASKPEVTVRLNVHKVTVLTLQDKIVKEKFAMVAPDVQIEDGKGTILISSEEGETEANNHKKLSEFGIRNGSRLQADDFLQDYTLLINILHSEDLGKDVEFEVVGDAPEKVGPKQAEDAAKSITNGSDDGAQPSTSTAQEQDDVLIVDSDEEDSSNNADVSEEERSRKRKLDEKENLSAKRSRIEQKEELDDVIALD
T1 sequence (Q9UBE0 1-346 partner): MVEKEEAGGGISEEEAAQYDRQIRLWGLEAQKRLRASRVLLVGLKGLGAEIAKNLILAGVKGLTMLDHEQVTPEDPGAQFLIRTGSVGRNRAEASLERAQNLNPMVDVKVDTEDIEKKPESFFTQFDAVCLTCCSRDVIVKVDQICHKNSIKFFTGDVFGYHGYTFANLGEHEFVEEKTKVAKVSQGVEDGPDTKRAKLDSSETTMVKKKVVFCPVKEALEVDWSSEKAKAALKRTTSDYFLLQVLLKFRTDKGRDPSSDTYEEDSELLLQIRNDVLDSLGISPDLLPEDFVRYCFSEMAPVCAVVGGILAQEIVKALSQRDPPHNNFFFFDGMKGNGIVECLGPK
Nature of the experiment: SUMO activity (Table I, biological activities). The arrangement: key: + (less active); ++ (active); +++ (most active). Type of experiment: biochemical.

The subject of the next experiment is c-Myc. Put plainly: c-Myc activity (Table I, biological activities). Also on record: key: + (less active); ++ (active); +++ (most active).

For the compound `COC(=O)C1=C(C(=O)NCCN(C)C)C2C=CC1(C(Cc1ccccc1)Nc1ccc(F)cc1)O2` (centres unmarked) [Compound 264], the SUMO result on SUMO is on record as “+++”. Further, the c-Myc entry in the experiment on c-Myc is “++”.

For `COC(=O)C1=C(C(=O)Nc2ccc(OCCN3CCN(C)CC3)cc2)C2C=CC1(C(Cc1ccccc1)Nc1ccccc1)O2` (centres unmarked) [Compound 501], at SUMO, the SUMO entry is “+++”. Moreover, in the experiment with c-Myc, the c-Myc entry was “+”.

For `COC(=O)C1=C(C(=O)Nc2ccc(C)c(F)c2)C2C=CC1(C(Cc1ccccc1)Nc1cc(F)cc(Cl)c1)O2` (centres unmarked) [Compound 348], the SUMO result at SUMO is listed as “++”. Besides, the c-Myc result in the experiment with c-Myc is on record as “+”.

Take `CCOC(=O)C1=C(C(=O)NCCN(C)C)C2C=CC1(C(Cc1ccccc1)Nc1ccc(F)cc1F)O2` (centres unmarked) [Compound 411]: the SUMO entry on SUMO is listed as “++”. Also, the c-Myc entry in the experiment with c-Myc is reported as “+”.

As to `COC(=O)C1=C(C(=O)Nc2ccc(F)cc2)C2C=CC1(C(Cc1ccccc1)Nc1ccccc1)O2` (centres unmarked) [Compound 166], the SUMO entry at SUMO is on record as “++”. In addition, the c-Myc entry in the experiment on c-Myc is “+”.

Take `COC(=O)C1=C(C(=O)NC2CCN(C)C2)C2C=CC1(C(Cc1ccccc1)Nc1ccccc1)O2` (centres unmarked) [Compound 239]: the SUMO entry on SUMO is reported as “+++”. Moreover, in the experiment on c-Myc, the c-Myc entry was “+”.

As for `COC(=O)C1=C(C(=O)Nc2ccc(OC)cc2)C2CCC1(C(Cc1ccccc1)Oc1ccccc1)O2` (centres unmarked) [Compound 350], at SUMO, the SUMO result is on record as “+”. Besides, in the experiment on c-Myc, the c-Myc result is “+”.

Turning to `COC(=O)C1=C(C(=O)Nc2cccnc2)C2C=CC1(C(Cc1ccccc1)Nc1ccccc1)O2` (centres unmarked) [Compound 223], at SUMO, the SUMO result is listed as “++”. Moreover, the c-Myc result in the experiment on c-Myc is recorded as “+”.

In the case of `CCOC(=O)C1=C(C(=O)Nc2ccc(OC)cc2)C2C=CC1(C(Nc1ccccc1)c1ccc(CN3CCOCC3)cc1)O2` (centres unmarked) [Compound 567], the SUMO entry at SUMO is given as “++”. Also, the c-Myc entry in the experiment with c-Myc is given as “+”.

Consider `COC(=O)C1=C(C(=O)NC2CCN(C)CC2)C2CCC1(C(Cc1ccccc1)Nc1ccccc1)O2` (centres unmarked) [Compound 304], for which, on SUMO, the SUMO entry was “+”. The c-Myc entry in the experiment with c-Myc is on record as “+”.

Take `CCOc1cccc(NC(Cc2ccccc2)C23C=CC(O2)C(C(N)=O)=C3C(=O)OC)c1` (centres unmarked) [Compound 249]: the SUMO result at SUMO was “++”. Moreover, in the experiment on c-Myc, the c-Myc entry is “+”.

Consider `CCOC(=O)C1=C(C(=O)Nc2ccc(C)c(F)c2)C2C=CC1(C(Nc1ccc(C#N)cc1)c1ccc(CN3CCOCC3)cc1)O2` (centres unmarked) [Compound 612], for which the SUMO entry at SUMO was “+”. The c-Myc entry in the experiment on c-Myc is reported as “+”.

For `COC(=O)C1=C(C(=O)Nc2cccnc2)C2C=CC1(C(Cc1ccccc1)Nc1cc(F)cc(F)c1)O2` (centres unmarked) [Compound 241], the SUMO result on SUMO is “++”. Besides, the c-Myc result with c-Myc is recorded as “++”.

For the compound `COC(=O)C1=C(C(=O)Nc2ccc3c(c2)OCO3)C2C=CC1(C(Cc1ccccc1)Nc1ccccc1)O2` (centres unmarked) [Compound 309], the SUMO entry on SUMO is “+”. For the same compound, the c-Myc entry in the experiment on c-Myc is on record as “+”.

Turning to `COC(=O)C1=C(C(=O)NC2CCN(C(C)C)CC2)C2C=CC1(C(Cc1ccccc1)Nc1ccccc1)O2` (centres unmarked) [Compound 277], the SUMO result on SUMO was “+++”. In addition, the c-Myc entry in the experiment on c-Myc is listed as “++”.

As to `COC(=O)C1=C(C(=O)NCC2CCCO2)C2C=CC1(C(Cc1ccccc1)Nc1ccccc1)O2` (centres unmarked) [Compound 405], the SUMO result at SUMO is given as “++”. In the experiment on c-Myc, the c-Myc entry is recorded as “+”.

For `COC(=O)C1=C(C(=O)Nc2ccc(C)nc2)C2C=CC1(C(Cc1ccccc1)Nc1ccccc1)O2` (centres unmarked) [Compound 289], the SUMO result at SUMO is given as “++”. Also, in the experiment on c-Myc, the c-Myc entry is “++”.

For the compound `COC(=O)C1=C(C(=O)Nc2ccc(C)c(F)c2)C2C=CC1(C(Cc1ccccc1)Nc1ccccc1F)O2` (centres unmarked) [Compound 351], on SUMO, the SUMO entry is “+++”. For the same compound, the c-Myc entry in the experiment with c-Myc is “+”.

With `COC(=O)C1=C(C(=O)NCCN(C)C)C2C=CC1(C(Cc1ccccc1)Nc1c(F)cccc1F)O2` (centres unmarked) [Compound 432], on SUMO, the SUMO entry is “++”. The c-Myc entry with c-Myc is “+”.

As for `CCOC(=O)C1=C(C(=O)OCC)C2(C(Cc3ccccc3)Nc3ccc(F)cc3F)C=CC1O2` (centres unmarked) [Compound 312], the SUMO result on SUMO is reported as “++”. Besides, in the experiment with c-Myc, the c-Myc result was “+”.

As to `COC(=O)C1=C(C(=O)NCCN(C)C)C2C=CC1(C(Cc1ccccc1)Nc1cc(F)cc(F)c1)O2` (centres unmarked) [Compound 399], the SUMO result on SUMO is given as “++”. Further, the c-Myc result in the experiment on c-Myc was “+”.

Consider `COC(=O)C1=C(C(=O)Nc2ccncc2)C2C=CC1(C(Cc1ccccc1)Nc1cc(F)cc(Cl)c1)O2` (centres unmarked) [Compound 220], for which the SUMO entry on SUMO is on record as “++”. Also, in the experiment with c-Myc, the c-Myc entry is “+”.

As to `CCOC(=O)C1=C(C(N)=O)C2C=CC1(C(Nc1ccccc1)c1ccc(CN3CCOCC3)cc1)O2` (centres unmarked) [Compound 552], on SUMO, the SUMO entry is given as “++”. Further, the c-Myc result with c-Myc is given as “+”.

Take `COC(=O)C1=C(C(=O)NC2CCN(C)CC2)C2C=CC1(C(Cc1ccccc1)Nc1ccc(F)cc1)O2` (centres unmarked) [Compound 262]: on SUMO, the SUMO entry is listed as “++”. Also, in the experiment with c-Myc, the c-Myc result was “++”.

In the case of `C#Cc1ccc(NC(=O)C2=C(C(=O)OCC)C3(C(Nc4ccccc4)c4ccc(CN5CCOCC5)cc4)C=CC2O3)cc1` (centres unmarked) [Compound 577], at SUMO, the SUMO entry is recorded as “++”. In addition, the c-Myc result in the experiment on c-Myc is reported as “++”.

In the case of `CCOc1cccc(NC(Cc2ccccc2)C23C=CC(O2)C(C(=O)NC2CCN(C)C2)=C3C(=O)OC)c1` (centres unmarked) [Compound 248], the SUMO result at SUMO was “+++”. Besides, in the experiment with c-Myc, the c-Myc result was “++”.

In the case of `COC(=O)C1=C(C(=O)OC)C2(C(Cc3ccccc3)Nc3ccc(F)cc3F)C=CC1O2` (centres unmarked) [Compound 171], at SUMO, the SUMO result is “++”. Moreover, in the experiment with c-Myc, the c-Myc result is “++”.

Take `COC(=O)C1=C(C(=O)NCCN2CCCC2)C2C=CC1(C(Cc1ccccc1)Nc1ccccc1)O2` (centres unmarked) [Compound 406]: the SUMO result at SUMO was “+++”. Moreover, the c-Myc result with c-Myc is given as “++”.

Take `COC(=O)C1=C(C(=O)OC)C2(C(Cc3ccc(CCO)cc3)Nc3ccccc3)C=CC1O2` (centres unmarked) [Compound 664]: the SUMO result on SUMO was “++”.

As to `Cc1ccc(S(=O)(=O)C2=CC3(C(Cc4ccccc4)Nc4ccccc4)C=CC2(C)O3)cc1` (centres unmarked) [Compound 532], the SUMO result at SUMO was “+”.

Take `COC(=O)C1=C(C(=O)OC)C2(C(Nc3ccccc3)c3cc4ccccc4nc3Cl)C=CC1O2` (centres unmarked) [Compound 671]: the SUMO entry on SUMO is “++”.

Consider `COC(=O)C1=C(C(=O)Nc2ccc(OC)cc2)C2C=CC1(C(Cc1ccccc1)Oc1ccc(F)cc1)O2` (centres unmarked) [Compound 479], for which the SUMO entry at SUMO is given as “++”.

Regarding `COC(=O)C1=C(C(=O)OC)C2(C(Cc3cccnc3Cl)Nc3ccccc3)C=CC1O2` (centres unmarked) [Compound 668], the SUMO result at SUMO is listed as “++”.

For `COC(=O)C1=C(C(=O)OC)C2(C(Cc3ccc(F)cc3F)Nc3ccccc3)C=CC1O2` (centres unmarked) [Compound 639], the SUMO result on SUMO is listed as “++”.

`COC(=O)C1=C(C(=O)OC)C2(C(Cc3ccccc3C)Nc3ccccc3)C=CC1O2` (centres unmarked) [Compound 648]: the SUMO result at SUMO is “++”.

Take `COC(=O)C1=C(C(=O)OC)C2(C(Cc3ccc(Br)cc3)Nc3ccccc3)C=CC1O2` (centres unmarked) [Compound 652]: the SUMO entry at SUMO is reported as “++”.

`CCCNC(=O)C1=C(C(=O)NCCC)C2(C(Cc3ccccc3)Nc3ccccc3)C=CC1O2` (centres unmarked) [Compound 157]: the SUMO entry on SUMO is recorded as “+”.

Turning to `CCCCC(Nc1cc(F)cc(F)c1)C12C=CC(O1)C(C(=O)NCCN(CC)CC)=C2C(=O)OC` (centres unmarked) [Compound 398], the SUMO result at SUMO is reported as “+”.

Consider `COC(=O)C1=C(C(=O)OC)C2(C(Cc3ccc(OC(F)(F)F)cc3)Nc3ccccc3)C=CC1O2` (centres unmarked) [Compound 647], for which the SUMO result at SUMO was “++”.

Consider `COC(=O)C1=C(C(=O)OC)C2(C(Cc3ccccc3Cl)Nc3ccc(Oc4ccccc4)cc3)C=CC1O2` (centres unmarked) [Compound 678], for which the SUMO result on SUMO is “+”.

(Values after US11578079B2, “SUMO inhibitor compounds and uses thereof” (CITY OF HOPE, priority 2018, dated 2023).)
